# “And” between values parts separate entries of the source, which are not always exact repeats. Equal entries are not always repeated. Where two headings read alike, the source gives them in different places.
# Legend:
# Assay in all cases: biochemical
# Type in all cases: binding
# [1] = biological target: panel of 468 diverse kinases (Homo sapiens, UniProt O00506); settings: YSK1; 1000 nM; read-out: Percent Control
# [2] = biological target: panel of 468 diverse kinases (Homo sapiens, UniProt O14920); settings: IKK-beta; 1000 nM; read-out: Percent Control
# [3] = biological target: panel of 468 diverse kinases (Homo sapiens, UniProt O15075); settings: DCAMKL1; 1000 nM; read-out: Percent Control
# [4] = biological target: panel of 468 diverse kinases (Homo sapiens, UniProt O75385); settings: ULK1; 1000 nM; read-out: Percent Control
# [5] = biological target: panel of 468 diverse kinases (Homo sapiens, UniProt O94768); settings: DRAK2; 1000 nM; read-out: Percent Control
# [6] = biological target: panel of 468 diverse kinases (Homo sapiens, UniProt P06239); settings: LCK; 1000 nM; read-out: Percent Control
# [7] = biological target: panel of 468 diverse kinases (Homo sapiens, UniProt P11802); settings: 1000 nM, read-out: Percent Control
# [8] = biological target: panel of 468 diverse kinases (Homo sapiens, UniProt P21127); settings: CDC2L1; 1000 nM; read-out: Percent Control
# [9] = biological target: panel of 468 diverse kinases (Homo sapiens, UniProt P24941); settings: CDK2; 1000 nM; read-out: Percent Control
# [10] = biological target: panel of 468 diverse kinases (Homo sapiens, UniProt P31749); settings: AKT1; 1000 nM; read-out: Percent Control
# [11] = biological target: panel of 468 diverse kinases (Homo sapiens, UniProt P36888, D835V); settings: FLT3(D835V); 1000 nM; read-out: Percent Control
# [12] = biological target: panel of 468 diverse kinases (Homo sapiens, UniProt P42336, E545A); settings: PIK3CA(E545A); 1000 nM; read-out: Percent Control
# [13] = biological target: panel of 468 diverse kinases (Homo sapiens, UniProt P49674); settings: CSNK1E; 1000 nM; read-out: Percent Control
# [14] = biological target: panel of 468 diverse kinases (Homo sapiens, UniProt P53778); settings: p38-gamma; 1000 nM; read-out: Percent Control
# [15] = biological target: panel of 468 diverse kinases (Homo sapiens, UniProt Q00532); settings: CDKL1; 1000 nM; read-out: Percent Control
# [16] = biological target: panel of 468 diverse kinases (Homo sapiens, UniProt Q02750); settings: MEK1; 1000 nM; read-out: Percent Control
# [17] = biological target: panel of 468 diverse kinases (Homo sapiens, UniProt Q06418); settings: TYRO3; 1000 nM; read-out: Percent Control
# [18] = biological target: panel of 468 diverse kinases (Homo sapiens, UniProt Q13237); settings: PRKG2; 1000 nM; read-out: Percent Control
# [19] = biological target: panel of 468 diverse kinases (Homo sapiens, UniProt Q13523); settings: PRP4; 1000 nM; read-out: Percent Control
# [20] = biological target: panel of 468 diverse kinases (Homo sapiens, UniProt Q13873); settings: BMPR2; 1000 nM; read-out: Percent Control
# [21] = biological target: panel of 468 diverse kinases (Homo sapiens, UniProt Q14680); settings: MELK; 1000 nM; read-out: Percent Control
# [22] = biological target: panel of 468 diverse kinases (Homo sapiens, UniProt Q16832); settings: DDR2; 1000 nM; read-out: Percent Control
# [23] = biological target: panel of 468 diverse kinases (Homo sapiens, UniProt Q32MK0); settings: MLCK; 1000 nM; read-out: Percent Control
# [24] = biological target: panel of 468 diverse kinases (Homo sapiens, UniProt Q6ZN16); settings: MAP3K15; 1000 nM; read-out: Percent Control
# [25] = biological target: panel of 468 diverse kinases (Homo sapiens, UniProt Q8N752); settings: CSNKIV1L; 1000 nM; read-out: Percent Control
# [26] = biological target: panel of 468 diverse kinases (Homo sapiens, UniProt Q8TD08); settings: ERK8; 1000 nM; read-out: Percent Control
# [27] = biological target: panel of 468 diverse kinases (Homo sapiens, UniProt Q96NX5); settings: CAMK1G; 1000 nM; read-out: Percent Control
# [28] = biological target: panel of 468 diverse kinases (Homo sapiens, UniProt Q99558); settings: NIK; 1000 nM; read-out: Percent Control
# [29] = biological target: panel of 468 diverse kinases (Homo sapiens, UniProt Q9NYY3); settings: PLK2; 1000 nM; read-out: Percent Control
# [30] = biological target: panel of 468 diverse kinases (Homo sapiens, UniProt Q9Y463); settings: DYRK1B; 1000 nM; read-out: Percent Control
# [31] = system: panel of 468 diverse kinases
# panel of 468 diverse kinases (Homo sapiens, UniProt P11802), sequence (P11802 2-303 limits assumed): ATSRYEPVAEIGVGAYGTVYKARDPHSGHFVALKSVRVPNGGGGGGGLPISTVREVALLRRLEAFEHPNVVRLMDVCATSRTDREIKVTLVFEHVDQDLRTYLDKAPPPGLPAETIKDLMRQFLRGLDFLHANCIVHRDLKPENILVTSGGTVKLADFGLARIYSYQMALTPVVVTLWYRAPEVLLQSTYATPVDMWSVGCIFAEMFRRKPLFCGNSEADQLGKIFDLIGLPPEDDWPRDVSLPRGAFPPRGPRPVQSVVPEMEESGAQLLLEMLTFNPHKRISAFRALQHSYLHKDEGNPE
# panel of 468 diverse kinases (Homo sapiens, UniProt Q16832), sequence (Q16832 22-855 limits assumed): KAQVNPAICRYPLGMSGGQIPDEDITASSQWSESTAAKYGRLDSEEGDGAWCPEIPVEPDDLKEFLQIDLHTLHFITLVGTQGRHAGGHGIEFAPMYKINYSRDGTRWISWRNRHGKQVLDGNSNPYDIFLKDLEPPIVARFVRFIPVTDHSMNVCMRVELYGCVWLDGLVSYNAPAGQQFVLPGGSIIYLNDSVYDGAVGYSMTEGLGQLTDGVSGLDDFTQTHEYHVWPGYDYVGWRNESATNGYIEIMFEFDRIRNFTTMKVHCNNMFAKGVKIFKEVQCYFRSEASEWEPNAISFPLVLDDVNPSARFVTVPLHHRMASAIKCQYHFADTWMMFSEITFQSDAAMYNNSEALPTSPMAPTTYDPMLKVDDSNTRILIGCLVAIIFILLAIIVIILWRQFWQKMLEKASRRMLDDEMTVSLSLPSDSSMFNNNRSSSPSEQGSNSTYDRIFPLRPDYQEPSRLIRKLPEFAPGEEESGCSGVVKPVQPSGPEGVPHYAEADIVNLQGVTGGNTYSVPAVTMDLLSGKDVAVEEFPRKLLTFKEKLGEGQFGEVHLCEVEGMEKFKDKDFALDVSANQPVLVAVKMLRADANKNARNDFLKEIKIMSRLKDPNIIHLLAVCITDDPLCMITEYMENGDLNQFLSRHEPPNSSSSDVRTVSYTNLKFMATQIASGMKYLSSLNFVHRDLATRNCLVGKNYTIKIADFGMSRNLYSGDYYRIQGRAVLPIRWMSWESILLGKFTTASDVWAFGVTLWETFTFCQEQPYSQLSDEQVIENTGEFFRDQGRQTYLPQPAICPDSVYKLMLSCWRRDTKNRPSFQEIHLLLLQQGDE
# panel of 468 diverse kinases (Homo sapiens, UniProt Q13237), sequence (Q13237 2-762 limits assumed): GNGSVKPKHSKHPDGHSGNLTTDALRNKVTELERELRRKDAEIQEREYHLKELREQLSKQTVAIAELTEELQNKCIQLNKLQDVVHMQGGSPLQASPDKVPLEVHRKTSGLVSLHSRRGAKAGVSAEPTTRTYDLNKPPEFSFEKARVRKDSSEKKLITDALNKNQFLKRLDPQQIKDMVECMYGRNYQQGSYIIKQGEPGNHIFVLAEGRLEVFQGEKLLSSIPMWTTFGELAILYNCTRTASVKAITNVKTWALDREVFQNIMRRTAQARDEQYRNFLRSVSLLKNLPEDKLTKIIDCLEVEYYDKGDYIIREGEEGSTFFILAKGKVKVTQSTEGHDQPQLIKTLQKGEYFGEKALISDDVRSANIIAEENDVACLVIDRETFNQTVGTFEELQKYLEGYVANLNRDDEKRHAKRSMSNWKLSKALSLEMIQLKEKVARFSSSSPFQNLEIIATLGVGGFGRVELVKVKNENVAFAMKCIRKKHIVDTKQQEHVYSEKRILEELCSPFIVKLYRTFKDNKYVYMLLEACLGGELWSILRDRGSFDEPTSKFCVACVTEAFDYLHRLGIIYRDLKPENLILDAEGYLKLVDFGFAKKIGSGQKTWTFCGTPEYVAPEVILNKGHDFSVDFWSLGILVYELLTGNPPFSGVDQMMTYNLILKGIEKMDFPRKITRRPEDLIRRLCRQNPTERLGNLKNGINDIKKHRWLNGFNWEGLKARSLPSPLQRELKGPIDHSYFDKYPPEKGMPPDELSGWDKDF
# panel of 468 diverse kinases (Homo sapiens, UniProt P06239), sequence (P06239 2-509 limits assumed): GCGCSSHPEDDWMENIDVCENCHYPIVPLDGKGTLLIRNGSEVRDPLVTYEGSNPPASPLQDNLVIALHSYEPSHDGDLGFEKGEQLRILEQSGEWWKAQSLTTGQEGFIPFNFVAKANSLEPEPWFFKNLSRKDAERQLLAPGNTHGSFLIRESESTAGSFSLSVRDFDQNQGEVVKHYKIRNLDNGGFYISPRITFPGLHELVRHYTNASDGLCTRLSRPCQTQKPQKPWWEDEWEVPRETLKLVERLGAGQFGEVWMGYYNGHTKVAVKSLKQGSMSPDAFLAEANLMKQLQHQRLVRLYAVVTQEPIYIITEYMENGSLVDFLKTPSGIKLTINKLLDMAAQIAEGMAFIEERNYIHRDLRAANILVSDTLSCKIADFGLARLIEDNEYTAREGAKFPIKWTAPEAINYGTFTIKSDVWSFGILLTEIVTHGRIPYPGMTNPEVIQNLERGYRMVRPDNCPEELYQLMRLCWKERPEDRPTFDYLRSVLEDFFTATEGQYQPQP
# panel of 468 diverse kinases (Homo sapiens, UniProt Q13523), sequence (Q13523 2-1007 limits assumed): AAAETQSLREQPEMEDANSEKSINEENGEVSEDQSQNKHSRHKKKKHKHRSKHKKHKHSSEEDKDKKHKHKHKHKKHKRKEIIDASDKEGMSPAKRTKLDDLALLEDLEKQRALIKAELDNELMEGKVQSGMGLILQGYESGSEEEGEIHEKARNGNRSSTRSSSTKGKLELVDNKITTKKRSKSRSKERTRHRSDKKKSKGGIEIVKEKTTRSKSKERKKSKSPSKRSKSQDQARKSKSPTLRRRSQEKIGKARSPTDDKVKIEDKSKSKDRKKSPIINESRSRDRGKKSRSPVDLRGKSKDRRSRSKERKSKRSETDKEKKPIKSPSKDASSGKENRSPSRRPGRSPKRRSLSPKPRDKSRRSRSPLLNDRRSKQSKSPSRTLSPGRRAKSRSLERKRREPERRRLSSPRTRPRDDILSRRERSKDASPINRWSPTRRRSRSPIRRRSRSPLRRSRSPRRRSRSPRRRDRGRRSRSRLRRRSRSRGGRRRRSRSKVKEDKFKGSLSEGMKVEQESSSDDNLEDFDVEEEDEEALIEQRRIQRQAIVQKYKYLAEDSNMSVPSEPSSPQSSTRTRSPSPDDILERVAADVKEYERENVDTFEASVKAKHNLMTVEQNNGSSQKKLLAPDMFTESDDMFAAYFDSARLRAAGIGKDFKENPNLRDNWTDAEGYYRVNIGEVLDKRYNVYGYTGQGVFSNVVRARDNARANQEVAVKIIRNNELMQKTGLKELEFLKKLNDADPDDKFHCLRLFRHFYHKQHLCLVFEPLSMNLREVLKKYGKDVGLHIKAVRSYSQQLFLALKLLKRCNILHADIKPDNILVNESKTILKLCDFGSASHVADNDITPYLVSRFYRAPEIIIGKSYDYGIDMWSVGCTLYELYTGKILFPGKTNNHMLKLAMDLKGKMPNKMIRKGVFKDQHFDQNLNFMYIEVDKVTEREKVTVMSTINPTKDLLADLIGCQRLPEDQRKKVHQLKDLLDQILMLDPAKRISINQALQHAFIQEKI
# panel of 468 diverse kinases (Homo sapiens, UniProt Q06418), sequence (Q06418 41-890 limits assumed): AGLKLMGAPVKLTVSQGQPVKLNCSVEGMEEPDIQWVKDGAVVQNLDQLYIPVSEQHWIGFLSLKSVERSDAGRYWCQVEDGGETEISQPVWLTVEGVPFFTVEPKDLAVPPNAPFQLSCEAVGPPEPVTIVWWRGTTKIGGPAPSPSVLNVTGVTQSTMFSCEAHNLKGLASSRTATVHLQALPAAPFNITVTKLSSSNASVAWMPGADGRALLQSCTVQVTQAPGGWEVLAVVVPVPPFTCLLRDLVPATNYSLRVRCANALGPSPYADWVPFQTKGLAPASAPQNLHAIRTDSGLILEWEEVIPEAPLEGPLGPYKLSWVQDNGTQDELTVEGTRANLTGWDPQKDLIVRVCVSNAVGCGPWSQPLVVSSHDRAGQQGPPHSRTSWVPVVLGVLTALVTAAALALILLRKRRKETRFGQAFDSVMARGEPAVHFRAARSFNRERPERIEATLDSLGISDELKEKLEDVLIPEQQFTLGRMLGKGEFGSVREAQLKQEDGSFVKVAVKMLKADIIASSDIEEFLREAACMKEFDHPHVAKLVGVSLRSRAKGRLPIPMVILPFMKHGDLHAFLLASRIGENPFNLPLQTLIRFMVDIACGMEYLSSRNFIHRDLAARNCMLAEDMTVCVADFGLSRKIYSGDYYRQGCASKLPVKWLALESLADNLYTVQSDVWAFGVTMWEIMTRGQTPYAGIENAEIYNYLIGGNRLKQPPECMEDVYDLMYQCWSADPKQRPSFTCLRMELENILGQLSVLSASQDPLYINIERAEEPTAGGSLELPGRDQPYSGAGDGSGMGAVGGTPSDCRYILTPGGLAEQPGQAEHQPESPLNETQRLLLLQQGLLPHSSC
smiles,measurement,setting,value
COc1cc2nc(NC3CC3)nc(NC3CCN(C(C)C)CC3)c2cc1OC [Formula IV],remaining activity at 1 µM,[1],98%
same,remaining activity at 1 µM,[2],66%
same,remaining activity at 1 µM,[3],53%
same,remaining activity at 1 µM,[4],51%
same,remaining activity at 1 µM,[5],79%
same,remaining activity at 1 µM,[6],100%
same,remaining activity at 1 µM,[7]; CDK4-cyclinD1,67%
same,remaining activity at 1 µM,[7]; CDK4-cyclinD3,54%
same,remaining activity at 1 µM,[7]; CDK4,62%
same,remaining activity at 1 µM,[8],100%
same,remaining activity at 1 µM,[9],91%
same,remaining activity at 1 µM,[10],95%
same,remaining activity at 1 µM,[11],44%
same,remaining activity at 1 µM,[12],89%
same,remaining activity at 1 µM,[13],100%
same,remaining activity at 1 µM,[14],78%
same,remaining activity at 1 µM,[15],53%
same,remaining activity at 1 µM,[16],63%
same,remaining activity at 1 µM,[17],100%
same,remaining activity at 1 µM,[18],88%
same,remaining activity at 1 µM,[19],84%
same,remaining activity at 1 µM,[20],40%
same,remaining activity at 1 µM,[21],85%
same,remaining activity at 1 µM,[22],66%
same,remaining activity at 1 µM,[23],91%
same,remaining activity at 1 µM,[24],52%
same,remaining activity at 1 µM,[25],99%
same,remaining activity at 1 µM,[26],83%
same,remaining activity at 1 µM,[27],99%
same,remaining activity at 1 µM,[28],46%
same,remaining activity at 1 µM,[29],55%
same,remaining activity at 1 µM,[30],86%
same,Percent Control,[31],98% and 49% and 80% and 92% and 56% and 57%
same,kinase selectivity using KINOMEscan,[31],extremely high kinase selectivity

# From patent US11542240B2, “STK19 inhibitors for treatment of cancer” (TRUSTEES OF BOSTON UNIVERSITY, priority 2018, dated 2023)
